From patent US6492330B1, “Antiangiogenic drugs” (National Institute of Immunology, priority 1996, dated 2002)
Non-standard residues stand in square brackets, D forms with d. No end group written: not given here.

How the values were obtained:
[1] = test system: vascular cells from explants of rat aorta; settings: 10^−8M octreotide; cited from earlier work
aortic rings in fibrin = settings: 10^−8M octreotide; cited from earlier work
[2] = test system: human umbelical vein endothelial cells (HUVEC); settings: 10^−9M octreotide; cited from earlier work
ECV.304 cells = test: MTT assay, inhibition of proliferation of endothelial cells ECV.304; format: cell-based; settings: 72 hours (Table 1)
Description: (§1) 150 μl of medium was added to the wells of a 96-well tissue culture plate (Nunc, Denmark) followed by 30 μl of cell suspension. The plate was left in incubator (37° C., 5% CO2) overnight. Each of the seven peptides of the combination MuJ-7 were added at three molar concentrations of 10^−7M, 10^−8M and 10^−9M. 20 μl of MuJ-7 at three concentrations of N/10, N and 10N was added to marked wells of the 96-well plate. The value of N for each of the individual peptides was 10^−8M for VIP2, BOM1, SP1, VIP3, and SOM2 and 10^−7M for VIP1, and 10^−9M for SOM1. Each concentration was plated in triplicate. 20 μl of medium alone was added to control wells while wells without cells served as blanks. A total volume of 200 μl was ensured in each well and the plate was left in an incubator (37° C., 5% CO2). After 72 hours of incubation an MTT assay was performed and percentage inhibition in proliferation of treated cells was calculated with respect to control cells.
150 μl of medium was added to the wells of a 96-well tissue culture plate (Nunc, Denmark) followed by 30 μl of cell suspension. The plate was left in incubator (37° C., 5% CO2) overnight. Novel peptides shown below were incubated with cells at concentration range of 10^−7 to 10^−9 M (except DT71 at concentration range 10^−8 to 10^−10 M). Each concentration was plated in triplicates. 20 μl of medium alone was added to control wells while wells without cells served as blanks. A total volume of 200 μl was ensured in each well and plate was left in incubator (37° C., 5% CO2). After 72 hours of incubation an MTT assay was performed and percentage inhibition in proliferation of treated cells was calculated with respect to control cells.

[3] = test system: endothelial cells ECV.304; test: Migration assay across 8 μm polycarbonate filter transwell inserts; format: cell-based; settings: N = 10^−8 M for VIP2, BOM1, SP1, VIP3, SOM2, 10^−7M for VIP1, 10^−9M for SOM1, 24 hours
Description: Polycarbonate filter transwell inserts (24 well size) with 8 μm pores (Nunc, Denmark) were used for the migration assay. ECV304 (10^4 cells/200 ul DMEM containing 0.1% BSA) was added to the upper chamber. The lower chamber contained 600 ul of DMEM with 0.1% BSA. Individual peptides of the composition MuJ-7 at six different concentrations each of N/100, N/10, N, 10N, 100N and 1000N were added directly to the upper well and the plate incubated at 37° C. for 24 hours. The cells migrated to the lower chamber were viewed randomly at five different phase-contrast microscopic fields and the total number of cells counted using Video Pro 32 Image Analysis system. Percent inhibition in migration was determined with reference to the Control. Similarly, […] different concentrations of N/100, N/10, N, 10N, 100N and 1000N of MuJ-7 were added directly to the upper well and the plate incubated at 37° C. for 24 hours. The cells migrated to the lower chamber were counted as described above.
Polycarbonate filter trasnwell inserts (24 well size) with 8 μm pores (Nuno, Denmark) were used for the migration assay. ECV304 (10^4 cells/200 ul DMEM containing 0.1% BSA) was added to the upper chamber. The lower chamber contained 600 ul of DMEM with 0.1% BSA. […] The sequence of each of the peptides added are described above. The cells migrated to the lower chamber were viewed randomly at five different phase-contrast microscopic fields and the total number of cells counted using Video Pro 32 Image Analysis system. Percent inhibition in migration was determined with reference to Control. […]

ECV304 = test: Tube-like-structure (TLS) formation on Matrigel; format: cell-based; settings: N = 10^−8 M for VIP2, BOM1, SP1, VIP3, SOM2, 10^−7M for VIP1, 10^−9M for SOM1, 24 hours
Description: Matrigel (350 ul) was placed into each well of a 24-well culture plate at 4° C. and was allowed to polymerize by incubation at 37° C. for 30 min. ECV304 (1.5×10^4) were seeded on the Matrigel in 500 ul DMEM supplemented with 10% FBS. MuJ-7 at four different concentrations of 0.25×, 0.5×, ×, & 5.0× were added and. the plate incubated at 37° C. for 24 hour. “×” denotes normal concentration of MuJ-7 where molar concentration of individual peptides was 10^−8 M for VIP2, BOM1, SP1, VIP3 and SOM2 and 10^−7 M for VIP1 and 10^−9 M for SOM1. […] Percent inhibition in tube area was determined with reference to untreated cells.
Matrigel (350 ul) was placed into each well of a 24-well culture plate at 4° C. and was allowed to polymerize by incubation at 37° C. for 30 min. ECV304 (1.5×10^4) were seeded on the Matrigel in 500 ul DMEM supplemented with 10% FBS. […] Percent inhibition in tube length was determined with reference to untreated cells.
Matrigel (350 ul) was placed into each well of a 24-well culture plate at 4° C. and was allowed to polymerize by incubation at 37° C. for 30 min. ECV304 (1.5×10^4) were seeded on the Matrigel in 500 ul DMEM supplemented with 10% FBS. Individual peptides of the composition MuJ-7 at three different concentrations each of N/10, N, and 10N were added and the plate incubated at 37° C. for 24 hours. […] Percent inhibition in tube length was determined with reference to Control. Similarly, three different concentrations of N/10, N, and 10N of MuJ-7 were added to the well and the plate incubated at 37° C. for 24 hours. Percent inhibition in tube length was determined with reference to Control as described previously (Table 10).

EaHy.926 = test: MTT assay, inhibition of proliferation of endothelial cells EaHy.926; format: cell-based; settings: 72 hours
Description: as §1

VIP-receptor complex = settings: n=6; K-A is the dissociation constant of VIP-receptor complex; cited from earlier work

C[C@@H](O)[C@@H]1NC(=O)[C@H](CCCCN)NC(=O)[C@@H](Cc2c[nH]c3ccccc23)NC(=O)[C@H](Cc2ccccc2)NC(=O)[C@@H](NC(=O)[C@H](N)Cc2ccccc2)CSSC[C@@H](C(=O)N[C@H](CO)[C@@H](C)O)NC1=O [octreotide]
inhibition of proliferation compared with controls [1]: 32.6%
reduction of sprouting compared with controls (aortic rings in fibrin): 33.2%
reduction of mean uptake of 3H-thymidine compared with controls [2]: 37%

[dR]PKP[dF]Q[dW]F[dW]LL-NH2 [SP1]
Percent Inhibition Proliferation (ECV.304 cells; ECV.304, peptide 10^−7M): 18%
Percent Inhibition Proliferation (ECV.304 cells; ECV.304, peptide 10^−8M): 24%
Percent Inhibition Proliferation (ECV.304 cells; ECV.304, peptide 10^−9M): 22%
Percent inhibition in migration ([3]; 10N): 92.65%
Percent inhibition in migration ([3]; 100N): 78.10%
Percent inhibition in migration ([3]; 1000N): 18.10%
Percent inhibition in migration ([3]; N/10): 94.10%
Percent inhibition in migration ([3]; N/100): 13.97%
Percent inhibition in migration ([3]; N): 90.50%
Percent inhibition in TLS activity (TLS length) (ECV304; 10N): 3.0%
Percent inhibition in TLS activity (TLS length) (ECV304; N/10): 14.4%
Percent inhibition in TLS activity (TLS length) (ECV304; N): 8.9%
Percent Inhibition Proliferation (EaHy.926; EaHy.926, peptide 10^−7M): 49%
Percent Inhibition Proliferation (EaHy.926; EaHy.926, peptide 10^−8M): 32%
Percent Inhibition Proliferation (EaHy.926; EaHy.926, peptide 10^−9M): 37%

vasoactive intestinal polypeptide [VIP]
pKa value for VIP-receptor complex (VIP-receptor complex): 8.10+/−0.10
